Results as given in ChEMBL document CHEMBL5154782, “Discovery of Potent PROTACs Targeting EGFR Mutants through the Optimization of Covalent EGFR Ligands” (J Med Chem, 2022).

Key:
NCI-H1975 = assay: Antiproliferative activity against human NCI-H1975 cells expressing EGFR L858R/T790M mutant assessed as inhibition of cell proliferation incubated for 72 hrs by MTT assay; type: functional, cell-based; settings: NCI-H1975, 72 h
HCC827 = assay: Antiproliferative activity against human HCC827 cells expressing EGFR deletion19 mutant assessed as inhibition of cell proliferation incubated for 72 hrs by MTT assay; type: functional, cell-based; settings: HCC827, 72 h
[1] = system: von Hippel-Lindau disease tumor suppressor/Epidermal growth factor receptor (Homo sapiens), P00533+P40337 [L858R,T790M]; assay: Protac activity at VHL/EGFR L858R/T790M mutant in human NCI-H1975 cells assessed as induction of EGFR degradation at 100 nM incubated for 24 hrs by Western blot analysis relative to control; type: cell-based
[2] = system: von Hippel-Lindau disease tumor suppressor/Epidermal growth factor receptor (Homo sapiens), P00533+P40337 [L858R,T790M]; assay: Protac activity at VHL/EGFR L858R/T790M mutant in human NCI-H1975 cells assessed as induction of EGFR degradation at 1000 nM incubated for 24 hrs by Western blot analysis relative to control; type: cell-based
[3] = system: von Hippel-Lindau disease tumor suppressor/Epidermal growth factor receptor (Homo sapiens), P00533+P40337 [L858R,T790M]; assay: Protac activity at VHL/[…] cells assessed as induction of EGFR degradation at 100 nM incubated for 24 hrs by Western blot analysis relative to control; type: cell-based
[4] = system: von Hippel-Lindau disease tumor suppressor/Epidermal growth factor receptor (Homo sapiens), P00533+P40337 [L858R,T790M]; assay: Protac activity at VHL/[…] cells assessed as induction of EGFR degradation at 1000 nM incubated for 24 hrs by Western blot analysis relative to control; type: cell-based
A-431 = assay: Antiproliferative activity against human A-431 cells expressing EGFR wildtype assessed as inhibition of cell proliferation incubated for 72 hrs by MTT assay; type: functional, cell-based; settings: A-431, 72 h
[5] = system: von Hippel-Lindau disease tumor suppressor/Epidermal growth factor receptor (Homo sapiens), P00533+P40337 [L858R,T790M]; assay: Protac activity at VHL/EGFR L858R/T790M mutant in human NCI-H1975 cells assessed as induction of EGFR degradation at 10 nM incubated for 24 hrs by Western blot analysis relative to control; type: cell-based
[6] = system: von Hippel-Lindau disease tumor suppressor/Epidermal growth factor receptor (Homo sapiens), P00533+P40337 [UNDEFINED MUTATION]; assay: Protac activity at VHL/EGFR/deletion19 in human HCC827 cells assessed as induction of EGFR degradation at 3 nM incubated for 24 hrs by Western blot analysis relative to control; type: cell-based
[7] = system: von Hippel-Lindau disease tumor suppressor/Epidermal growth factor receptor (Homo sapiens), P00533+P40337 [UNDEFINED MUTATION]; assay: Protac activity at VHL/EGFR/deletion19 in human HCC827 cells assessed as induction of EGFR degradation at 30 nM incubated for 24 hrs by Western blot analysis relative to control; type: cell-based
[8] = target: von Hippel-Lindau disease tumor suppressor/Epidermal growth factor receptor (Homo sapiens, UniProt P00533+P40337, L858R/T790M); assay: Protac activity at VHL/EGFR L858R/T790M mutant (unknown origin) assessed as inhibition of EGFR incubated for 40 mins in presence of ATP by Kinase Glo luminescence assay; type: protein assay

| SMILES | IC50 (NCI-H1975) | IC50 (HCC827) | Activity [1] | Activity [2] | Activity [3] | Activity [4] | IC50 (A-431) | Activity [5] | Activity [6] | Activity [7] | IC50 [8] |
| --- | --- | --- | --- | --- | --- | --- | --- | --- | --- | --- | --- |
| C=CC(=O)Nc1cc(Nc2nccc(-c3cn(C)c4ccccc34)n2)c(OC)cc1N(C)CCN(C)CC(=O)NCCOCCOCC(=O)N[C@H](C(=O)N1C[C@H](O)C[C@H]1C(=O)NCc1ccc(-c2scnc2C)cc1)C(C)(C)C | 2370 nM | 768 nM | – | – | – | – | – | – | – | – | – |
| COc1cc(N(C)CCN(C)C)c(NC(=O)/C=C/CN(C)CCN(C)C(=O)CCCCCC(=O)N[C@H](C(=O)N2C[C@H](O)C[C@H]2C(=O)NCc2ccc(-c3scnc3C)cc2)C(C)(C)C)cc1Nc1nccc(-c2cn(C)c3ccccc23)n1 | 1470 nM | 140 nM | < 20% | < 20% | < 20% | 25% | – | – | – | – | – |
| C=CC(=O)N1CC[C@@H](n2c(Nc3ccccc3)nc3cnc(Nc4ccc(N5CCN(C)CC5)cc4)nc32)C1 | 290 nM | 1.16 nM | – | – | – | – | – | – | – | – | – |
| C=CC(=O)Nc1cc(Nc2nccc(-c3cn(C)c4ccccc34)n2)c(OC)cc1N(CCCCCCC(=O)NCCCCCCC(=O)N[C@H](C(=O)N1C[C@H](O)C[C@H]1C(=O)NCc1ccc(-c2scnc2C)cc1)C(C)(C)C)CCN(C)C | 730 nM | 110 nM | < 20% | < 20% | < 20% | < 20% | – | – | – | – | – |
| C=CC(=O)N1CCC[C@H](n2c(Nc3ccccc3)nc3cnc(Nc4ccc(N5CCN(CCCCCCC(=O)N[C@H](C(=O)N6C[C@H](O)C[C@H]6C(=O)NCc6ccc(-c7scnc7C)cc6)C(C)(C)C)CC5)cc4)nc32)C1 | 40 nM | 1.67 nM | 69% | – | – | – | > 10000 nM | 49% | 62% | 70% | – |
| C=CC(=O)N1CCC[C@H](n2c(Nc3ccccc3)nc3cnc(Nc4ccc(N5CCN(CC(=O)NCCCCCCC(=O)N[C@H](C(=O)N6C[C@H](O)C[C@H]6C(=O)NCc6ccc(-c7scnc7C)cc6)C(C)(C)C)CC5)cc4)nc32)C1 | 127 nM | 8.93 nM | < 20% | – | – | – | – | < 20% | 63% | 77% | – |
| COc1cc(N2CCN(CC(=O)NCCCCCCC(=O)N[C@H](C(=O)N3C[C@H](O)C[C@H]3C(=O)NCc3ccc(-c4scnc4C)cc3)C(C)(C)C)CC2)c(NC(=O)/C(C#N)=C/C2CC2)cc1Nc1nccc(-c2cn(C)c3ccccc23)n1 | > 10000 nM | > 10000 nM | – | – | – | – | – | – | – | – | > 10000 nM |
| C=CC(=O)N1CCC(n2c(Nc3ccccc3)nc3cnc(Nc4ccc(N5CCN(C)CC5)nc4)nc32)CC1 | 290 nM | 3.05 nM | – | – | – | – | – | – | – | – | – |
| COc1cc(N(C)CCN(C)C)c(NC(=O)/C=C/CN(C)CCCCCCCC(=O)N[C@H](C(=O)N2C[C@H](O)C[C@H]2C(=O)NCc2ccc(-c3scnc3C)cc2)C(C)(C)C)cc1Nc1nccc(-c2cn(C)c3ccccc23)n1 | 640 nM | 67 nM | < 20% | < 20% | < 20% | 25% | – | – | – | – | – |
| COc1cc(N(C)CCN(C)C)c(NC(=O)/C=C/CN(C)CCN(C)C(=O)CCCCCCC(=O)N[C@H](C(=O)N2C[C@H](O)C[C@H]2C(=O)NCc2ccc(-c3scnc3C)cc2)C(C)(C)C)cc1Nc1nccc(-c2cn(C)c3ccccc23)n1 | 1690 nM | 130 nM | < 20% | < 20% | < 20% | 24% | > 10000 nM | – | – | – | – |
| C=CC(=O)Nc1cc(Nc2nccc(-c3cn(C)c4ccccc34)n2)c(OC)cc1N(CCCCCCC(=O)N[C@H](C(=O)N1C[C@H](O)C[C@H]1C(=O)NCc1ccc(-c2scnc2C)cc1)C(C)(C)C)CCN(C)C | 760 nM | 75 nM | < 20% | < 20% | < 28% | 34% | 1550 nM | – | – | – | – |
| C=CC(=O)N1CCC(n2c(Nc3ccccc3)nc3cnc(Nc4ccc(N5CCN(C)CC5)cc4)nc32)CC1 | 360 nM | 2.19 nM | – | – | – | – | – | – | – | – | – |
| C=CC(=O)N1CCC[C@H](n2c(Nc3ccccc3)nc3cnc(Nc4ccc(N5CCN(CC(=O)NCCCCCC(=O)N[C@H](C(=O)N6C[C@H](O)C[C@H]6C(=O)NCc6ccc(-c7scnc7C)cc6)C(C)(C)C)CC5)cc4)nc32)C1 | 250 nM | 36.5 nM | 23% | – | – | – | – | < 20% | 46% | 60% | – |
| C=CC(=O)N1CCC[C@H](n2c(Nc3ccccc3)nc3cnc(Nc4ccc(N5CCN(CCCCCCCC(=O)N[C@H](C(=O)N6C[C@@H](O)C[C@H]6C(=O)N[C@@H](C)c6ccc(-c7scnc7C)cc6)C(C)(C)C)CC5)cc4)nc32)C1 | 41 nM | 1.83 nM | – | – | – | – | – | – | – | – | – |
| COc1cc(N2CCN(C)CC2)c(NC(=O)/C(C#N)=C/C(C)(C)NC(=O)CCCCCC(=O)N[C@H](C(=O)N2C[C@H](O)C[C@H]2C(=O)NCc2ccc(-c3scnc3C)cc2)C(C)(C)C)cc1Nc1nccc(-c2cn(C)c3ccccc23)n1 | 5790 nM | 1390 nM | – | – | – | – | – | – | – | – | > 10000 nM |
| C=CC(=O)N1CCC[C@@H](n2c(Nc3ccccc3)nc3cnc(Nc4ccc(N5CCN(C)CC5)cc4)nc32)C1 | 266 nM | 1.77 nM | – | – | – | – | – | – | – | – | – |
| COc1cc(N(C)CCN(C)C)c(NC(=O)/C=C/CN(C)CCCCCCCCCC(=O)N[C@H](C(=O)N2C[C@H](O)C[C@H]2C(=O)NCc2ccc(-c3scnc3C)cc2)C(C)(C)C)cc1Nc1nccc(-c2cn(C)c3ccccc23)n1 | 985 nM | 61 nM | < 20% | < 20% | < 20% | 30% | 840 nM | – | – | – | – |
| CN1CCN(c2ccc(Nc3ncc4nc(Nc5ccccc5)n(C5CCCC5)c4n3)cc2)CC1 | 342 nM | 0.93 nM | – | – | – | – | – | – | – | – | – |
| COc1cc(N2CCN(CC(=O)NCCCCCCC(=O)N[C@H](C(=O)N3C[C@H](O)C[C@H]3C(=O)NCc3ccc(-c4scnc4C)cc3)C(C)(C)C)CC2)c(NC(=O)/C(C#N)=C/c2ccncc2)cc1Nc1nccc(-c2cn(C)c3ccccc23)n1 | > 10000 nM | > 10000 nM | – | – | – | – | – | – | – | – | > 10000 nM |
| C=CC(=O)Nc1cc(Nc2nccc(-c3cn(C)c4ccccc34)n2)c(OC)cc1N(CCCCCCC(=O)NCCOCCOCC(=O)N[C@H](C(=O)N1C[C@H](O)C[C@H]1C(=O)NCc1ccc(-c2scnc2C)cc1)C(C)(C)C)CCN(C)C | 800 nM | 683 nM | < 20% | < 20% | 23% | 25% | – | – | – | – | – |
| C=CC(=O)N1CCC[C@H](n2c(Nc3ccccc3)nc3cnc(Nc4ccc(N5CCN(CC(=O)NCCOCCOCC(=O)N[C@H](C(=O)N6C[C@H](O)C[C@H]6C(=O)NCc6ccc(-c7scnc7C)cc6)C(C)(C)C)CC5)cc4)nc32)C1 | 282 nM | 59.6 nM | < 20% | – | – | – | – | < 20% | 50% | 57% | – |
| C=CC(=O)Nc1cccc(-n2c(Nc3ccccc3)nc3cnc(Nc4ccc(N5CCN(C)CC5)cc4)nc32)c1 | 41 nM | 0.38 nM | – | – | – | – | – | – | – | – | – |
| CCC(=O)N1CCC[C@H](n2c(Nc3ccccc3)nc3cnc(Nc4ccc(N5CCN(C)CC5)cc4)nc32)C1 | 1170 nM | 2.48 nM | – | – | – | – | – | – | – | – | – |
| COc1cc(N(C)CCN(C)C)c(NC(=O)/C=C/CN(C)CCN(C)C(=O)CCCC(=O)N[C@H](C(=O)N2C[C@H](O)C[C@H]2C(=O)NCc2ccc(-c3scnc3C)cc2)C(C)(C)C)cc1Nc1nccc(-c2cn(C)c3ccccc23)n1 | 2760 nM | 150 nM | – | – | – | – | – | – | – | – | – |
